Results on 25 molecules are retold here after patent US11958844B2, “1,3,4-oxadiazole derivative compounds as histone deacetylase 6 inhibitor, and pharmaceutical composition comprising the same” (Chong Kun Dang Pharmaceutical Corp., priority 2018, dated 2024).

A word on the IC50: it is the concentration that gives 50% inhibition.

For this experiment, the target named is T1, HDAC6 human recombinant (Homo sapiens, UniProt Q9UBN7).
T1 sequence (Q9UBN7 1-1215): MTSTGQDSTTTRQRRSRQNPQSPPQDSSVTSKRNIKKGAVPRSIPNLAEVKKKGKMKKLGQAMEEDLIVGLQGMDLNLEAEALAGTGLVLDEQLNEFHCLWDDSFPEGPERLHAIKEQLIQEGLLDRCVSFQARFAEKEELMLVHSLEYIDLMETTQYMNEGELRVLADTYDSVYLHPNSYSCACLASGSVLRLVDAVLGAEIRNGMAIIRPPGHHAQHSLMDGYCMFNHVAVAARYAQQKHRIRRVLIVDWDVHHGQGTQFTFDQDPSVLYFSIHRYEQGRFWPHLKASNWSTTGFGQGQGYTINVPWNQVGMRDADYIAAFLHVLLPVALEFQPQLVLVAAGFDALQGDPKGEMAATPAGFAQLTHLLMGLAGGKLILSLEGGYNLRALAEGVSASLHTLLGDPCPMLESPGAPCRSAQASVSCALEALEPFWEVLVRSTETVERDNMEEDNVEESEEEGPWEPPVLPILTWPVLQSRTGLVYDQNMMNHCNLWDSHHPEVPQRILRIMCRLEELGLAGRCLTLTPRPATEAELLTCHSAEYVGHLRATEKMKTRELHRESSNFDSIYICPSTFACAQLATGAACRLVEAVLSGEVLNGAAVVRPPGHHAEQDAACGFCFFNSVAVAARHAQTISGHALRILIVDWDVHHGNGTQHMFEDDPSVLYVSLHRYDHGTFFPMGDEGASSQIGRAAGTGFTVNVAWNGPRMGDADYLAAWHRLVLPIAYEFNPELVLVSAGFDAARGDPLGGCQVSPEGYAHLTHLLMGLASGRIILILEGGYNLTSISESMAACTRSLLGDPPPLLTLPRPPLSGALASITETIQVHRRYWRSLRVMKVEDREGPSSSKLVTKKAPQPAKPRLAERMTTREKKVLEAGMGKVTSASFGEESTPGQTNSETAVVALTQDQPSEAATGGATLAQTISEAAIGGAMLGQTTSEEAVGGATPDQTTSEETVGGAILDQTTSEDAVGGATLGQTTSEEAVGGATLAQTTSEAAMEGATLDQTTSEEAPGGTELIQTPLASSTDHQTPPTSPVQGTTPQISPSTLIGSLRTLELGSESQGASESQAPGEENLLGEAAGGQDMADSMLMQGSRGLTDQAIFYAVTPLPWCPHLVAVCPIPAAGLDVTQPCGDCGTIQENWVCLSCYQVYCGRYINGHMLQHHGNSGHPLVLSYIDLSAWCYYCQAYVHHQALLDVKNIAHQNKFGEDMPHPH
Kind of experiment: HDAC enzyme activity inhibition (in vitro), fluorimetric HDAC6 assay. Conditions: samples at 0.1, 1, 10, 100 and 1000 nM, 37° C. 60 minutes, fluorescence Ex 390, Em 460. Format: biochemical. Here is the method:
To identify this, HDAC1/6 enzyme selectivity and cell selectivity (HDAC1: histone acetylation/HDAC6: tubulin acetylation) were investigated accordingly.
An HDAC enzyme inhibitory ability of a test material was measured by means of HDAC1 Fluorimetric Drug Discovery Assay Kit (Enzolifesciences: BML-AK511) and HDAC6 human recombinant (Calbiochem: 382180). For an HDAC1 assay, samples were treated at a concentration of 100, 1000 and 10000 nM. For an HDAC6 assay, samples were treated at a concentration of 0.1, 1, 10, 100 and 1000 nM. After such sample treatment, a reaction was continued at 37° C. for 60 minutes, then treated with a developer, and then subjected to reaction at 37° C. for 30 minutes, after which fluorescence intensity (Ex 390, Em 460) was measured by means of FlexStation3 (Molecular device).
Consider `O=c1cc(-c2nnc(C(F)(F)F)o2)ccn1Cc1cccc(F)c1` [Compound 31, 1-(3-fluorobenzyl)-4-(5-(trifluoromethyl)-1,3,4-oxadiazole-2-yl)pyridine-2(1H)-one], for which the IC50 came out at 1100 nM.
The same measure for `O=c1cc(-c2nnc(C(F)(F)F)o2)ccn1Cc1ccccc1F` [Compound 32, 1-(2-fluorobenzyl)-4-(5-(trifluoromethyl)-1,3,4-oxadiazole-2-yl)pyridine-2(1H)-one]: 2420 nM; for `O=c1cc(-c2nnc(C(F)(F)F)o2)ccn1Cc1cc(F)ccc1F` [Compound 33, 1-(2,5-difluorobenzyl)-4-(5-(trifluoromethyl)-1,3,4-oxadiazole-2-yl)pyridine-2(1H)-one]: 1270 nM.
As for `O=C(Cn1ccc(-c2nnc(C(F)(F)F)o2)cc1=O)c1ccc(Cl)cc1` [Compound 34, 1-(2-(4-chlorophenyl)-2-oxoethyl)-4-(5-(trifluoromethyl)-1,3,4-oxadiazole-2-yl)pyridine-2(1H)-one], the IC50 was found to be 2320 nM.
As for `CS(=O)(=O)c1ccc(C(=O)Cn2ccc(-c3nnc(C(F)(F)F)o3)cc2=O)cc1` [Compound 35, 1-(2-(4-(methylsulfonyl)phenyl)-2-oxoethyl)-4-(5-(trifluoromethyl)-1,3,4-oxadiazole-2-yl)pyridine-2(1H)-one], the IC50 was found to be 2210 nM.
Regarding `O=C(Cn1ccc(-c2nnc(C(F)(F)F)o2)cc1=O)c1cccs1` [Compound 36, 1-(2-oxo-2-(thiophene-2-yl)ethyl)-4-(5-(trifluoromethyl)-1,3,4-oxadiazole-2-yl)pyridine-2(1H)-one], the IC50 came to 935 nM.
The value for `O=C(Cn1ccc(-c2nnc(C(F)(F)F)o2)cc1=O)c1ccc(Cl)s1` [Compound 37, 1-(2-(5-chlorothiophene-2-yl)-2-oxoethyl)-4-(5-(trifluoromethyl)-1,3,4-oxadiazole-2-yl)pyridine-2(1H)-one] was 1300 nM.
The same measure for `O=C(Cn1ccc(-c2nnc(C(F)(F)F)o2)cc1=O)c1coc2ccccc12` [Compound 38, 1-(2-(benzofuran-3-yl)-2-oxoethyl)-4-(5-(trifluoromethyl)-1,3,4-oxadiazole-2-yl)pyridine-2(1H)-one]: 2390 nM; for `O=C(OCCn1ccc(-c2nnc(C(F)(F)F)o2)cc1=O)c1ccccc1` [Compound 39, 2-(2-oxo-4-(5-(trifluoromethyl)-1,3,4-oxadiazole-2-yl)pyridine-1(2H)-yl)ethyl benzoate]: 900 nM; for `O=C(Cn1ccc(-c2nnc(C(F)(F)F)o2)cc1=O)OCc1ccccc1` [Compound 40, benzyl 2-(2-oxo-4-(5-(trifluoromethyl)-1,3,4-oxadiazole-2-yl)pyridine-1(2H)-yl)acetate]: 945 nM.
On to `O=C(Cn1ccc(-c2nnc(C(F)(F)F)o2)cc1=O)c1ccc2ccccc2c1` [Compound 41, 1-(2-(naphthalene-2-yl)-2-oxoethyl)-4-(5-(trifluoromethyl)-1,3,4-oxadiazole-2-yl)pyridine-2(1H)-one], for which the concentration for half-maximal inhibition (IC50) was 5180 nM.
As for `O=C(Cn1ccc(-c2nnc(C(F)(F)F)o2)cc1=O)c1ccccc1` [Compound 42, 1-(2-oxo-2-phenylethyl)-4-(5-(trifluoromethyl)-1,3,4-oxadiazole-2-yl)pyridine-2(1H)-one], the IC50 is 1910 nM.
For the molecule `O=C(C(Cn1ccc(-c2nnc(C(F)F)o2)cc1=O)c1ccccc1)N1CCS(=O)(=O)CC1` (stereo not shown) [Compound 44], the concentration for half-maximal inhibition (IC50) was determined as 382 nM.
The same measure for `O=C(C(Cn1ccc(-c2nnc(C(F)F)o2)cc1=O)c1ccccc1)N1CCOCC1` (stereo not shown) [Compound 45, 4-(5-(difluoromethyl)-1,3,4-oxadiazole-2-yl)-1-(3-morpholino-3-oxo-2-phenylpropyl)pyridine-2(1H)-one]: 290 nM.
The same measure for `CC(C)=CCn1ccc(-c2nnc(C(F)(F)F)o2)cc1=O` [Compound 48, 1-(3-methylbut-2-en-1-yl)-4-(5-(trifluoromethyl)-1,3,4-oxadiazole-2-yl)pyridine-2(1H)-one]: 1670 nM; for `CCn1ccc(-c2nnc(C(F)(F)F)o2)cc1=O` [Compound 49, 1-ethyl-4-(5-(trifluoromethyl)-1,3,4-oxadiazole-2-yl)pyridine-2(1H)-one]: 1590 nM; for `O=C(Cn1ccc(-c2nnc(C(F)F)o2)cc1=O)c1cccs1` [Compound 50, 4-(5-(difluoromethyl)-1,3,4-oxadiazole-2-yl)-1-(2-oxo-2-(thiophene-2-yl)ethyl)pyridine-2(1H)-one]: 238 nM.
The value for `O=C(Cn1ccc(-c2nnc(C(F)F)o2)cc1=O)c1coc2ccccc12` [Compound 51, 1-(2-(benzofuran-3-yl)-2-oxoethyl)-4-(5-(difluoromethyl)-1,3,4-oxadiazole-2-yl)pyridine-2(1H)-one] was 284 nM; that for `C=C(C)Cn1ccc(-c2nnc(C(F)F)o2)cc1=O` [Compound 52, 4-(5-(difluoromethyl)-1,3,4-oxadiazole-2-yl)-1-(2-methylallyl)pyridine-2(1H)-one] was 377 nM.
For the molecule `CC(C)CCn1ccc(-c2nnc(C(F)F)o2)cc1=O` [Compound 53], the IC50 was 388 nM.
As to `CC(C)=CCn1ccc(-c2nnc(C(F)F)o2)cc1=O` [Compound 54, 4-(5-(difluoromethyl)-1,3,4-oxadiazole-2-yl)-1-(3-methylbut-2-en-1-yl)pyridine-2(1H)-one], the concentration for half-maximal inhibition (IC50) was determined as 663 nM.
The value for `CCn1ccc(-c2nnc(C(F)F)o2)cc1=O` [Compound 55, 4-(5-(difluoromethyl)-1,3,4-oxadiazole-2-yl)-1-ethylpyridine-2(1H)-one] was 284 nM.
The value for `O=C(Cn1ccc(-c2nnc(C(F)F)o2)cc1=O)c1ccc(Cl)s1` [Compound 56, 1-(2-(5-chlorothiophene-2-yl)-2-oxoethyl)-4-(5-(difluoromethyl)-1,3,4-oxadiazole-2-yl)pyridine-2(1H)-one] was 126 nM; that for `O=C(N[C@@H](Cn1ccc(-c2nnc(C(F)F)o2)cc1=O)c1ccccc1)N1CCOCC1` [Compound 57, (R)—N-(2-(4-(5-(difluoromethyl)-1,3,4-oxadiazole-2-yl)-2-oxopyridine-1(2H)-yl)-1-phenylethyl)morpholine-4-carboxamide] was 301 nM.
`O=C(N[C@@H](Cn1ccc(-c2nnc(C(F)F)o2)cc1=O)c1ccccc1)N1CCS(=O)(=O)CC1` [Compound 58, (R)—N-(2-(4-(5-(difluoromethyl)-1,3,4-oxadiazole-2-yl)-2-oxopyridine-1(2H)-yl)-1-phenylethyl)thiomorpholine-4-carboxamide 1,1-dioxide]: the half-inhibitory concentration (IC50) was 358 nM.
